Assay results as given in the supplement of paper PMC3974653.
Counter-ions that a name gives are not always drawn.

System: MTT (mouse pheochromocytoma)
Experiment: IC50 of cell viability (ATP content)
Conditions: (24 or 48 h)
How it was run: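 MTT mouse pheochromocytoma cells in white 1536-well plates were treated for 24 or 48 hrs with library compounds at 8 final concentrations from 0.5 nM to 46 µM. ATP content was measured with CellTiter-Glo luminescence, using positive-control wells as 100% and DMSO wells as 0%. IC50 came from a four-parameter logistic fit.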

| Compound | IC50 of cell viability |
| --- | --- |
| Oc1cccc(-c2c3nc(c(-c4cccc(O)c4)c4ccc([nH]4)c(-c4cccc(O)c4)c4nc(c(-c5cccc(O)c5)c5ccc2[nH]5)CC4)C=C3)c1 [Temoporfin] [listing 1 of 2 here] | > 46 µM |
| Oc1cccc(-c2c3nc(c(-c4cccc(O)c4)c4ccc([nH]4)c(-c4cccc(O)c4)c4nc(c(-c5cccc(O)c5)c5ccc2[nH]5)CC4)C=C3)c1 [Temoporfin] [listing 2 of 2 here] | > 46 µM |
| O=C1/C(=C\c2cccs2)CCC/C1=C/c1cccs1 [Tenilidona] | > 46 µM |
| O=C(Nc1ncc([N+](=O)[O-])s1)c1cccs1 [Tenonitrozol] | > 46 µM |
| CN1\C(=C(\O)C2=C(C=CS2)[S+]1([O-])=O)C(=O)NC3=CC=CC=N3 [Tenoxicam] | > 46 µM |
| COc1cc2nc(N3CCN(C(=O)[C@H]4CCCO4)CC3)nc(N)c2cc1OC [Terazosin hydrochloride] | > 46 µM |
| CN(C/C=C/C#CC(C)(C)C)Cc1cccc2ccccc12 [Terbinafine] | > 46 µM |
| CC(C)(C)NC[C@H](O)c1cc(O)cc(O)c1 [Terbutaline hemisulfate] | > 46 µM |
| CC(C)N1CCN(c2ccc(OC[C@@H]3CO[C@@](Cn4cncn4)(c4ccc(Cl)cc4Cl)O3)cc2)CC1 [Terconazole] | > 46 µM |
| CC(C)(C)c1ccc(C(O)CCCN2CCC(C(O)(c3ccccc3)c3ccccc3)CC2)cc1 (configuration not stated) [Terfenadine] | > 46 µM |
| CC(CC(c1ccccc1)c1ccccc1)NC(C)(C)C (configuration not stated) [Terodiline hydrochloride] | > 46 µM |
| CCO[C@@H](Cc1ccc(OCCc2ccc(O[S+](C)(=O)[O-])cc2)cc1)C(=O)O [Tesaglitazar] | > 46 µM |
| C[C@]12C=CC(=O)C=C1CC[C@@H]1C2CC[C@]2(C)OC(=O)CCC12 (some centres not stated) [Testolactone] | > 46 µM |
| C[C@]12CCC3[C@@H](CCC4=CC(=O)CC[C@@]43C)C1CCC2OC(=O)CCc1ccccc1 (some centres not stated) [Testosterone 17-phenylpropionate] | > 46 µM |
| CCC(=O)O[C@@H]1CC[C@@H]2[C@@H]3CC\C4=C\C(=O)CC[C@@]4(C)[C@H]3CC[C@@]12C [Testosterone propionate] | > 46 µM |
| C[C@]12CC[C@H]3[C@@H](CC/C4=C/C(=O)CC[C@]34C)[C@@H]1CC[C@H]2O [Testosterone] | > 46 µM |
| COc1cc2c(cc1OC)C1CC(=O)C(CC(C)C)CN1CC2 (configuration not stated) [Tetrabenazine] | > 46 µM |
| CN(C)[C@@H]\1[C@@H]2C[C@H]3\C(=C(\O)[C@@]2(O)C(=O)\C(=C1O)C(N)=O)C(=O)C4=C(C=CC=C4O)[C@@]3(C)O [Tetracycline hydrochloride] | > 46 µM |
| CCCCCCCCCCCCCC(=O)OC(C)C [Tetradecanoic acid, 1-methylethyl ester] | > 46 µM |
| CC[N+](CC)(CC)CC.[Cl-] [Tetraethylammonium chloride] | > 46 µM |
| NCCNCCNCCNCCN [Tetraethylenepentamine] | > 46 µM |
| C1C[C@@H](\C2=N\CCN2)C3=C(C1)C=CC=C3 [Tetrahydrozoline hydrochloride] | > 46 µM |
| O=C1OC(c2cc(I)c(O)c(I)c2)(c2cc(I)c(O)c(I)c2)c2ccccc21 [Tetraiodophenolphthalein] | > 46 µM |
| CN(C)C(=S)SSC(=S)N(C)C [Tetramethylthiuram disulfide] | > 46 µM |
| COC\1=C\C=C/2[C@H]3CC4=C5C(=C(OC)C=C4)OC1[C@@]25CCN3C (some centres not stated) [Thebaine] | > 46 µM |
| CN1CCC(N(Cc2cccs2)c2ccccc2)CC1 [Thenalidine] | > 46 µM |

| Compound | IC50 of cell viability |
| --- | --- |
| Cn1cnc2c1c(=O)[nH]c(=O)n2C [Theobromine] | > 46 µM |
| Cn1c(=O)c2c(ncn2CCOC(=O)C(C)(C)Oc2ccc(Cl)cc2)n(C)c1=O [Theofibrate] | > 46 µM |
| C[S+](=O)([O-])c1ccc([C@H](O)[C@H](CO)NC(=O)C(Cl)Cl)cc1 [Thiamphenicol] | > 46 µM |
| CCSc1ccc2c(c1)N(CCCN1CCN(C)CC1)c1ccccc1S2.O=C(O)C[C@@H](O)C(=O)O.O=C(O)C[C@@H](O)C(=O)O [Thiethylperazine malate] | > 46 µM |
| COC1=C(OC)C2=C(CC[C@@H](NC(C)=O)C/3=C/C(=O)/C(=C/C=C23)SC)C=C1O[C@@H]4O[C@@H](CO)[C@@H](O)[C@@H](O)[C@H]4O [Thiocolchicoside] | > 46 µM |
| O=C(CS)Nc1ccccc1 [Thioglycolic acid anilide] | > 46 µM |
| CN1CCN(CCCN2c3ccccc3Sc3ccc([S+](=O)([O-])N(C)C)cc32)CC1.C[S+](=O)([O-])O.C[S+](=O)([O-])O [Thioproperazine dimesylate] | > 46 µM |
| O=C(O)c1ccccc1S [Thiosalicylic acid] | > 46 µM |
| S=P(N1CC1)(N1CC1)N1CC1 [Thiotepa] | > 46 µM |
| CCN(CC)CCSC(=O)C(c1ccccc1)c1ccccc1 [Thiphenamil hydrochloride] | > 46 µM |
| CCCCCCCCCCCCCCCC[N+](C)(C)CCN(Cc1ccc(OC)cc1)c1ncccn1 [Thonzonium bromide] | > 46 µM |
| Cc1ccc(C(C)C)c(O)c1 [Thymol] | > 46 µM |
| [H][C@]1(CCCN(CC\C=C(\C2=C(C)C=CS2)C3=C(C)C=CS3)C1)C(O)=O [Tiagabine hydrochloride] | > 46 µM |
| CCN(CC)CCNC(=O)c1cc([S+](C)(=O)[O-])ccc1OC [Tiapride hydrochloride] | > 46 µM |
| C[C@@H](C(=O)O)c1ccc(C(=O)c2ccccc2)s1 [Tiaprofenic acid] | > 46 µM |
| [Na+].[Na+].CC1(C)S[C@H]2[C@H](NC(=O)[C@H](C([O-])=O)C3=CSC=C3)C(=O)[N@]2[C@H]1C([O-])=O [Ticarcillin sodium] | > 46 µM |
| O=C(O)COc1ccc(C(=O)c2cccs2)c(Cl)c1Cl [Ticrynafen] | > 46 µM |
| CN(C)c1cc(NC(=O)CNC(C)(C)C)c(O)c2c1C[C@H]1C[C@H]3[C@H](N(C)C)C(O)=C(C(N)=O)C(=O)[C@]3(O)C(O)=C1C2=O [Tigecycline] | > 46 µM |
| CCN[C@@]1(c2cccs2)CCCCC1=O [Tiletamine hydrochloride] | > 46 µM |
| Cc1ccc(O)c2ncccc12 [Tiliquinol] | > 46 µM |
| [2H]c1c([2H])c([2H])c2c([nH]c(=S)n2C2CCN(CCCC(=O)c3ccc(F)cc3)CC2)c1[2H] [Timiperone] | > 46 µM |
| CC[S+](=O)([O-])CCn1c([N+](=O)[O-])cnc1C [Tinidazole] | > 46 µM |
| CCOC(=O)Nc1ccc2c(c1)N(C(=O)CN(C)C)c1ccccc1CC2 [Tiracizine] | > 46 µM |
| O=C(O)Cc1cc(I)c(Oc2ccc(O)c(I)c2)c(I)c1 [Tiratricol, 3,3',5-triiodothyroacetic acid] | > 46 µM |
| CCCC[S+](=O)([O-])N[C@@H](Cc1ccc(OCCCCC2CCNCC2)cc1)C(=O)O.Cl.O [Tirofiban] | > 46 µM |
| Clc1ccc2nsnc2c1NC1=NCCN1 [Tizanidina] | > 46 µM |
